Biological target: T1, human TRPC6 (Homo sapiens, UniProt Q9Y210)
T1 construct: expressed in transfected cells
T1 sequence (Q9Y210 1-931): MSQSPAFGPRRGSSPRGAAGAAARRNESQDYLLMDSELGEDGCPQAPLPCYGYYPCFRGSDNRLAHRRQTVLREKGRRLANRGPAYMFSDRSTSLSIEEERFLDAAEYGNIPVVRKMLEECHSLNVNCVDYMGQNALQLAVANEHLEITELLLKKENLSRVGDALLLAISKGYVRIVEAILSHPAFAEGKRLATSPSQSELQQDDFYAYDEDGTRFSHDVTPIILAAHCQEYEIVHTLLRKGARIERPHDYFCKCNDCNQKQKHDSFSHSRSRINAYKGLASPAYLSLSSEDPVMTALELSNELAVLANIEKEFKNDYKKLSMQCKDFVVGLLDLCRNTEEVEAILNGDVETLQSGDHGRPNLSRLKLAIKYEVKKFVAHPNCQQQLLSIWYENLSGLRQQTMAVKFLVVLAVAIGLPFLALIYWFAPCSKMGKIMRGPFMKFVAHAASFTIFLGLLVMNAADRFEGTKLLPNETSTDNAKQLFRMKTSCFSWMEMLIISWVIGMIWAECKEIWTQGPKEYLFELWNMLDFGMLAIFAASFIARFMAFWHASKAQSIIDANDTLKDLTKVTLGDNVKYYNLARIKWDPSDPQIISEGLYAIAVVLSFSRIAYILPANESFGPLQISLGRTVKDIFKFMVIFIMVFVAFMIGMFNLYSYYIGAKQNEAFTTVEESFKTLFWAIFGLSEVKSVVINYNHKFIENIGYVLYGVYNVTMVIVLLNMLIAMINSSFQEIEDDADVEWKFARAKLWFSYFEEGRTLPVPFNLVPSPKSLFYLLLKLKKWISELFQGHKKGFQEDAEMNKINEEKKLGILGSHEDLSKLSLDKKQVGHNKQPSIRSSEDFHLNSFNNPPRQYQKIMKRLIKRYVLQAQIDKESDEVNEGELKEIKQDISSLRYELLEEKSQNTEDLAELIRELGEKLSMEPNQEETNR
Assay: High Throughput Screening Assay Method 2 (membrane potential dye, GSK1702934A agonist, HEK293 stably transfected with human TRPC6)
Type: cell-based
Settings: antagonist effect against human TRPC6, 3 μM GSK1702934A agonist, HEK293 TRPC6 cells, read-out: Fluorescence TRPC6 IC50
Excerpt: This screening assay measures TRPC6 (transient receptor potential cation channel, subfamily C, member 6) ion channel activation via addition either of the commercially available DAG ligand analogue OAG (1-oleoyl-2-acetyl-sn-glycerol) or of the TRPC6 agonist 1-[1-(4,5,6,7,8-pentahydrocyclohepta[2,1-d]thiophen-2-ylcarbonyl)-4-piperidyl]-3-hydrobenzimidazol-2-one (GSK1702934A). The assay utilizes a FLIPR membrane potential (FMP) dye from Molecular Devices, which is a voltage sensitive indicator with a fluorescent quencher. Changes in membrane potential as measured by the fluorescent signal increase during membrane depolarization provide a measurement of channel activity.
The commercially available HEK293 cell line (ATCC) was stably transfected with an human TRPC6 gene construct in pcDNA3.1(+) (Thermo Fisher) and screened to find a clone with TRPC6 expression. These cells were maintained in growth medium recommended by the manufacturer supplemented with 400 μg/ml G418 to promote retention of the TRPC6 construct. After growing to near confluency, cells were plated at a density of 15,000 cells/well in clear bottom black walled poly-D-Lys coated 384-well tissue culture treated plates (TwinHelix, cat. #GR 4332 CPL) in growth medium lacking G418, and allowed to grow for 24 hrs. Growth media was removed from the wells and cells were then loaded with 20 μL of 0.5× Membrane Potential sensitive dye (Molecular Devices) in the presence of 30 μM BAPTA-AM (Invitrogen) in Tyrode's assay buffer (130 mM NaCl, 5 mM KCl, 0.15 mM CaCl2), 1 mM MgCl2, 5 mM NaHCO3, 20 mM HEPES, pH 7.4) and incubated for 60 min at room temperature in the dark. Ten μL/well of test compound or controls was added to the wells with the FLIPR^TETRA (Molecular Devices) and incubated for 5 minutes. Compounds were tested at eight concentrations (10, 3.16, 1, 0.316, 0.1, 0.0316, 0.01 and 0.00316 μM diluted in Tyrode's assay buffer and 0.5% DMSO, final concentration) with inter-plate duplicate data points. Subsequently, 15 μL/well of GSK1702934A agonist in Tyrode's assay buffer was added to a final concentration of 3 μM by the FLIPR^TETRA and the signal of the emitted fluorescence (Excitation: 510-545 nm, Emission: 565-625 nm) was recorded for 3 minutes. Negative and positive controls were included on each plate. Negative controls wells consisted of cells exposed to Tyrode's assay buffer and agonist solution, but no test compound. Positive control consisted of cells exposed to […] Verapamil hydrochloride (Tocris, cat. #0654) diluted in Tyrode's assay buffer and 0.5% DMSO final concentration and agonist solution. Inhibition was expressed as a percentage of control, with 0% activity being a result in which the response value of the test wells reached a level identical to the wells containing Verapamil plus GSK1702934A and 100% activity being a result in which the response value of the test wells reached a level identical to the wells containing GSK1702934A alone. Genedata Screener® 14.0.6 was used for data analysis to fit IC50 curves.

COc1cc(N)ncc1C1CCN(C(=O)c2ccc(OCC3CCCCC3)cc2F)CC1 [Compound 41, 5-{1-[4-(Cyclohexylmethoxy)-2-fluorobenzoyl]piperidin-4-yl}-4-methoxypyridin-2-amine]
IC50: 2170 nM

COc1cc(C(=O)N2CCC(c3ccc(N)nn3)CC2)c(F)cc1Oc1ccc(F)cc1 [Compound 47, 6-{1-[2-Fluoro-4-(4-fluorophenoxy)-5-methoxybenzoyl]piperidin-4-yl}pyridazin-3-amine]
IC50: 34 nM

CCCOc1ccc(C(=O)N2CCC(c3cnc(N)cc3OC)CC2)c(F)c1 [Compound 39, 5-[1-(2-Fluoro-4-propoxybenzoyl)piperidin-4-yl]-4-methoxypyridin-2-amine]
IC50: 662 nM

COc1cc(C(=O)N2CCC(c3cnc(N)cc3OC)CC2)c(F)cc1Oc1ccc(F)cc1 [Compound 29, 5-{1-[2-Fluoro-4-(4-fluorophenoxy)-5-methoxybenzoyl]piperidin-4-yl}-4-methoxypyridin-2-amine]
IC50: 158 nM

Nc1ccc(C2CCN(C(=O)c3ccc(Oc4ccccc4)c(C(F)(F)F)c3)CC2)nn1 [Compound 49, 6-{1-[4-Phenoxy-3-(trifluoromethyl)benzoyl]piperidin-4-yl}pyridazin-3-amine]
IC50: 1160 nM

COc1cc(N)ncc1N1CCN(C(=O)c2ccc(Oc3ccc(F)cc3)cc2F)C2(CC2)C1 [Compound 27, 5-{4-[2-Fluoro-4-(4-fluorophenoxy)benzoyl]-4,7-diazaspiro[2.5]octan-7-yl}-4-methoxypyridin-2-amine]
IC50: 97 nM

COc1cc(C(=O)N2CCC(c3cnc(N)cc3OC)CC2)c(F)cc1OCC1CC(C)C1 (stereo not shown) [Compound 34, 5-(1-{2-Fluoro-5-methoxy-4-[(3-methylcyclobutyl)methoxy]benzoyl}piperidin-4-yl)-4-methoxypyridin-2-amine]
IC50: 428 nM

COc1cc(N)ncc1C1CCN(C(=O)c2ccc(OCc3csnn3)cc2F)CC1 [Compound 40, 5-(1-{2-Fluoro-4-[(1,2,3-thiadiazol-4-yl)methoxy]benzoyl}piperidin-4-yl)-4-methoxypyridin-2-amine]
IC50: 482 nM

COc1cc(N)ncc1C1CCN(C(=O)c2ccc(OC[C@@H]3C[C@H]3C)cc2F)CC1 (relative stereo) [Compound 38, 5-[1-(2-Fluoro-4-{[trans-2-methylcyclopropyl]methoxy}benzoyl)piperidin-4-yl]-4-methoxypyridin-2-amine]
IC50: 791 nM

Nc1ccc([C@@H]2CCN(C(=O)c3cc(F)c(Oc4ccc(F)cc4)cc3F)[C@H](CO)C2)nn1 [Compound 52b, [(2S,4R)-4-(6-Aminopyridazin-3-yl)-1-[2,5-difluoro-4-(4-fluorophenoxy)benzoyl]piperidin-2-yl]methanol]
IC50: 80 nM

COc1cc(N)ncc1C1CCN(C(=O)c2cc(F)c(Oc3ccc(F)cc3)cc2F)CC1 [Compound 30, 5-{1-[2,5-Difluoro-4-(4-fluorophenoxy)benzoyl]piperidin-4-yl}-4-methoxypyridin-2-amine]
IC50: 166 nM

COc1cc(C(=O)N2CCC(c3nnc(N)cc3C)CC2)c(F)cc1Oc1ccc(F)cc1 [Compound 51, 6-{1-[2-Fluoro-4-(4-fluorophenoxy)-5-methoxybenzoyl]piperidin-4-yl}-5-methylpyridazin-3-amine]
IC50: 182 nM

Nc1ccc(C2CCN(C(=O)c3ccc(Oc4ccc(F)cc4)c(F)c3)CC2)nn1 [Compound 48, 6-{1-[3-Fluoro-4-(4-fluorophenoxy)benzoyl]piperidin-4-yl}pyridazin-3-amine]
IC50: 141 nM

Nc1ccc(C2CCN(C(=O)c3ccc(Oc4ccc(F)cc4)cc3F)CC2)nn1 [Compound 46, 6-{1-[2-Fluoro-4-(4-fluorophenoxy)benzoyl]piperidin-4-yl}pyridazin-3-amine]
IC50: 57 nM

Nc1ccc(C2CCN(C(=O)c3cc(F)c(Oc4ccc(F)cc4)cc3F)CC2)nn1 [Compound 45, 6-{1-[2,5-Difluoro-4-(4-fluorophenoxy)benzoyl]piperidin-4-yl}pyridazin-3-amine]
IC50: 61 nM

COc1cc(N)ncc1C1CCN(C(=O)c2ccc(Oc3ccc(F)cc3)cc2F)CC1 [Compound 31, 5-{1-[2-Fluoro-4-(4-fluorophenoxy)benzoyl]piperidin-4-yl}-4-methoxypyridin-2-amine]
IC50: 205 nM

COc1cc(C(=O)N2CCC(c3cnc(N)cc3OC)CC2)c(F)cc1OCC(C)C [Compound 33, 5-{1-[2-Fluoro-5-methoxy-4-(2-methylpropoxy)benzoyl]piperidin-4-yl}-4-methoxypyridin-2-amine]
IC50: 250 nM

COc1cc(N)ncc1C1CCN(C(=O)c2ccc(OCc3ccon3)cc2F)CC1 [Compound 53, 5-(1-{2-Fluoro-4-[(1,2-oxazol-3-yl)methoxy]benzoyl}piperidin-4-yl)-4-methoxypyridin-2-amine]
IC50: 641 nM

COc1cc(N)ncc1C1CCN(C(=O)c2ccc(OCc3nccs3)cc2F)CC1 [Compound 54, 5-(1-{2-Fluoro-4-[(1,3-thiazol-2-yl)methoxy]benzoyl}piperidin-4-yl)-4-methoxypyridin-2-amine]
IC50: 1190 nM

COc1cc(C(=O)N2CCC(c3cnc(N)cc3OC)CC2)c(F)cc1OCC1CC1 [Compound 35, 5-{1-[4-(Cyclopropylmethoxy)-2-fluoro-5-methoxybenzoyl]piperidin-4-yl}-4-methoxypyridin-2-amine]
IC50: 154 nM

COc1cc(C(=O)N2CCC(c3cnc(N)cc3OC)CC2)c(F)cc1OCC1CC(F)(F)C1 [Compound 37, 5-(1-{4-[(3,3-Difluorocyclobutyl)methoxy]-2-fluoro-5-methoxybenzoyl}piperidin-4-yl)-4-methoxypyridin-2-amine]
IC50: 478 nM

COc1cc(N)ncc1C1CCN(C(=O)c2ccc(Oc3ccc(F)cc3)cc2)CC1 [Compound 32, 5-{1-[4-(4-Fluorophenoxy)benzoyl]piperidin-4-yl}-4-methoxypyridin-2-amine]
IC50: 97 nM

COc1cc(N)ncc1N1CCN(C(=O)c2cc(F)c(Oc3ccc(F)cc3)cc2F)C2(CC2)C1 [Compound 28, 5-{4-[2,5-Difluoro-4-(4-fluorophenoxy)benzoyl]-4,7-diazaspiro[2.5]octan-7-yl}-4-methoxypyridin-2-amine]
IC50: 135 nM

Cc1cc(C2CCN(C(=O)c3ccc(Oc4ccc(F)cc4)cc3)CC2)nnc1N [Compound 50, 6-{1-[4-(4-Fluorophenoxy)benzoyl]piperidin-4-yl}-4-methylpyridazin-3-amine]
IC50: 288 nM

COc1cc(N)ncc1C1CCN(C(=O)c2ccc(OCc3ccccc3)cc2F)CC1 [Compound 43, 5-{1-[4-(Benzyloxy)-2-fluorobenzoyl]piperidin-4-yl}-4-methoxypyridin-2-amine]
IC50: 1810 nM
